A word on the IC50: it is the point on the concentration scale where inhibition reaches its midpoint. Lower therefore signals inhibition by little substance.

Residues, ends and D or L forms follow the SMILES beside them. *: point of attachment. 5FAM = O=C1OC2(c3ccc(O)cc3Oc3cc(O)ccc32)c2ccc(C(=O)*)cc21; Ahx = NCCCCCC(=O)O

Kd and IC50 data for five molecules are collected here from publication PMC11346428, “Biophysical and structural analyses of the interaction between the SHANK1 PDZ domain and an internal SLiM” (Biochemical Journal, 2024).

Assay [1] addresses T1, SHANK1 PDZ domain (656–762) (Homo sapiens, UniProt Q9Y566).
T1 construct: Human SHANK1 PDZ domain (656–762) was prepared as described previously; GST (N, cleaved yes); made in house; host or cells: E. coli BL21 Gold (pGEX-6P-2)
T1 sequence (Q9Y566 656-762): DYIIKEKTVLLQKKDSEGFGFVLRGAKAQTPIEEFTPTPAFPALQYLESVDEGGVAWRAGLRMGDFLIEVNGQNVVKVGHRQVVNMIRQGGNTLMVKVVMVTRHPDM
Description: Fluorescence anisotropy direct titration. As to conditions: 50 mM NH4OAc, pH 6.5. The class given is binding. Here is the method: Direct titration assays were performed in 384-well plates (Greiner Bio-one). Two hundred micromolars of SHANK1 protein was dialyzed into the assay buffer before use. Twenty microlitres of the assay buffer (50 mM ammonium-acetate, pH 6.5) was first added to each well. Twenty microlitres of the target protein sample was then added to the first column, followed by a two-fold serial dilution over 24 points. Twenty microlitres of 50 nM tracer peptide or 20 µl of the assay buffer was added to the corresponding row wells. The titration was performed in triplicate. […] The P (perpendicular intensity) and S (parallel intensity) channels raw data were obtained. The data processing and formulae are shown in the Supporting Information 2.6.
(§1) . Reversed Phase C18 column, mobile phase A (0.1% TFA in water), mobile phase B
2.6 Equations for data calculation in fluorescent anisotropy direct titration The intensity and anisotropy were calculated by using Equations 1 and 2. The data was fitted to a sigmoidal logistic model to obtain r min and rmax, and the L b was further calculated (Equation 3). Finally, the data was fitted to a nonlinear curve model (Equation 4), to obtain the value of KD.
I = total intensity, r = anisotropy, P = perpendicular intensity, S = parallel intensity, G is an instrument gain factor, L b = fraction ligand bound, λ = Ibound/Iunbound = 1, [FL] = concentration of fluorescent ligand, k = K D and x = [added titrant].
2.7 Equations for data calculation in fluorescent anisotropy competition assays The calculated average anisotropy values and their standard deviation were fitted using a sigmoidal logistic model (Equation 5). y = r = anisotropy, xo = mid-point of the curve between the r max and rmin plateau. […]
(In fluorescence polarisation assays a small probe gives low polarisation when free and higher when bound to something large.)

In assay [2] the target is T1, SHANK1 PDZ domain (656–762). In words: Isothermal titration calorimetry (ITC). As to conditions: 25 mM Tris, pH 7.5, 150 mM NaCl, 25°C; 500 μM peptide injected into 50 μM protein; one-binding site model.
Description: A Microcal ITC200i instrument (Malvern) was employed to carry out the ITC experiments. Prior to use, SHANK1 protein was dialyzed against 20 mM Tris, 150 mM NaCl, pH 7.5 buffer. […] Sixty microlitres of every test peptide was placed in the syringe to titrate against 350 µl of 50 µM Shank1 protein in the cell. The injection volumes were 2 µl each, injection time 6 s, and a 120 s delay between each injection for 20 injections in total. The titration for peptide into buffer was subtracted from the titration for peptide into protein to account for the heat of peptide dilution. Raw data was processed in the software Microcal Origin 8 and fit to a one-binding site model.
Assay [3] shares this target. Description: Fluorescence anisotropy competition assay. The class given is binding. The note with it: 50 nM tracer, 1 μM SHANK1, 50 mM NH4OAc, pH 6.5, triplicate. Here is the method: FA competition assays were also performed in 50 mM NH4OAc, pH 6.5 buffer in 384-well plates. Twenty microlitres of the assay buffer was first added to wells. Twenty microlitres of 5000 µM competitor peptides was added to the first columns, followed by a twofold serial dilution over 16 points. Three micromolars of SHANK1 protein was dialyzed into the assay buffer before use. Twenty microlitres of the SHANK1 protein was added to each well to give a final protein concentration of 1 μM. Twenty microlitres of 50 nM tracer peptides or 20 µl of the assay buffer was added to corresponding row wells. The titration was performed in triplicate. Plates were read immediately with an excitation and emission wavelength of 480 and 535 nm respectively (dichroic mirror 505 nm), and after an hour or after 24 h on the plate reader with the same parameters as described above. The data processing and formulae are shown in the Supporting Information 2.7.
Time (min) Mobile phase A (%) Mobile phase B (%) Flow (mL/min) […]
as §1
2.6 Equations for data calculation in fluorescent anisotropy direct titration The intensity and anisotropy were calculated by using Equations 1 and 2. The data was fitted to a sigmoidal logistic model to obtain r min and rmax, and the L b was further calculated (Equation 3). […]

The target in assay [4] is T2, FAM-Ahx-EESTSFQGP-CONH2.
T2 chain: {FAM-Ahx}-EESTSFQGP-NH2
Description: fluorescence anisotropy direct titration.

The target of assay [5] is T3, Ac-EESTSFQGP-CONH2.
T3 chain: Ac-EESTSFQGP-NH2
Description: fluorescence anisotropy competition (tracer FAM-Ahx-EESTSFQGP-CONH2).

Setting [6] is: 50 nM labelled peptide as tracer, plates read after 24 hr incubation at room temperature, read-out: KD (FA direct titration, Figure S1).

In the case of `CC(C)[C@H](NC(=O)CNC(=O)[C@H](CCC(N)=O)NC(=O)[C@H](Cc1ccccc1)NC(=O)[C@H](CO)NC(=O)[C@@H](NC(=O)[C@H](CO)NC(=O)[C@H](CCC(=O)O)NC(=O)CCCCCNC(=O)c1ccc2c(c1)C(=O)OC21c2ccc(O)cc2Oc2cc(O)ccc21)[C@@H](C)O)C(=O)N[C@@H](CCCCN)C(=O)N[C@@H](CO)C(=O)NCC(=O)N1CCC[C@H]1C(=O)N[C@H](C(=O)N[C@@H](CO)C(=O)N[C@H](C(=O)N[C@@H](C)C(N)=O)C(C)C)C(C)C` [FAM-Ahx-ELFN1579-594-CONH2] ({5FAM-Ahx}-ESTSFQGVKSGPVSVA-NH2), the Kd in assay [1] (setting [6]) came to 3.6 ± 0.7 µM.
In assay [2], Ac-EESTSFQGP-NH2 yielded a Kd of 0.96 µM. The IC50 in assay [3] (competition against SHANK1/FAM-Ahx-EESTSFQGP-CONH2 interaction) came out at 3.9 ± 0.1 µM; in assay [3] (competition against SHANK1/FITC-Ahx-EAQTRL-COOH interaction), 3.3 ± 0.2 µM.
Consider `CC[C@H](C)[C@H](NC(=O)[C@H](CC(C)C)NC(=O)[C@H](CCC(=O)O)NC(=O)[C@@H]1CCCN1C(=O)[C@H](Cc1ccccc1)NC(=O)CCCCCNC(=O)c1ccc2c(c1)C(=O)OC21c2ccc(O)cc2Oc2cc(O)ccc21)C(=O)N[C@@H](CCC(N)=O)C(=O)N[C@@H](CC(=O)O)C(=O)N[C@H](C(=O)N[C@@H](CO)C(=O)N[C@H](C(=O)N[C@@H](CO)C(=O)N[C@@H](Cc1ccccc1)C(=O)N[C@@H](CO)C(=O)N[C@H](C(=O)N[C@H](C(=O)N[C@@H](CCCNC(=N)N)C(N)=O)[C@@H](C)O)[C@@H](C)O)[C@@H](C)O)[C@@H](C)O` [FAM-Ahx-ARAP31414-1429-CONH2] ({5FAM-Ahx}-FPELIQDTSTSFSTTR-NH2), for which the Kd in assay [1] (setting [6]) came out at 12.2 ± 8.3 µM.
As to `C[C@@H](O)[C@H](NC(=O)[C@H](CO)NC(=O)[C@H](CCC(=O)O)NC(=O)[C@H](CCC(=O)O)NC(=O)CCCCCNC(=O)c1ccc2c(c1)C(=O)OC21c2ccc(O)cc2Oc2cc(O)ccc21)C(=O)N[C@@H](CO)C(=O)N[C@@H](Cc1ccccc1)C(=O)N[C@@H](CCC(N)=O)C(=O)NCC(=O)N1CCC[C@H]1C(N)=O` ({5FAM-Ahx}-EESTSFQGP-NH2), the Kd in assay [1] (FA direct titration of SHANK1 into 50 nM tracer peptide, 25°C, triplicate, read-out: KD) amounted to 0.81 ± 0.08 µM.

B1: SHANK1 PDZ domain 656-762 (protein)
chain: DYIIKEKTVLLQKKDSEGFGFVLRGAKAQTPIEEFTPTPAFPALQYLESVDEGGVAWRAGLRMGDFLIEVNGQNVVKVGHRQVVNMIRQGGNTLMVKVVMVTRHPDM
In assay [4], B1 yielded a Kd of 0.81 µM. The molecule also yielded an IC50 in assay [5] of 3.9 µM.
